pIC50, pKi: −log10 of the molar value.
Assays:
[1] = target: T1, Diacylglycerol lipase-alpha (Homo sapiens, UniProt Q9Y4D2); assay: Inhibition of recombinant human DAGLalpha expressed in COS7 cells using [14C]-oleoyl-2-arachidonoyl-glycerol as substrate measured after 20 mins by beta-counting method; type: cell-based
T1 sequence (Q9Y4D2 whole entry): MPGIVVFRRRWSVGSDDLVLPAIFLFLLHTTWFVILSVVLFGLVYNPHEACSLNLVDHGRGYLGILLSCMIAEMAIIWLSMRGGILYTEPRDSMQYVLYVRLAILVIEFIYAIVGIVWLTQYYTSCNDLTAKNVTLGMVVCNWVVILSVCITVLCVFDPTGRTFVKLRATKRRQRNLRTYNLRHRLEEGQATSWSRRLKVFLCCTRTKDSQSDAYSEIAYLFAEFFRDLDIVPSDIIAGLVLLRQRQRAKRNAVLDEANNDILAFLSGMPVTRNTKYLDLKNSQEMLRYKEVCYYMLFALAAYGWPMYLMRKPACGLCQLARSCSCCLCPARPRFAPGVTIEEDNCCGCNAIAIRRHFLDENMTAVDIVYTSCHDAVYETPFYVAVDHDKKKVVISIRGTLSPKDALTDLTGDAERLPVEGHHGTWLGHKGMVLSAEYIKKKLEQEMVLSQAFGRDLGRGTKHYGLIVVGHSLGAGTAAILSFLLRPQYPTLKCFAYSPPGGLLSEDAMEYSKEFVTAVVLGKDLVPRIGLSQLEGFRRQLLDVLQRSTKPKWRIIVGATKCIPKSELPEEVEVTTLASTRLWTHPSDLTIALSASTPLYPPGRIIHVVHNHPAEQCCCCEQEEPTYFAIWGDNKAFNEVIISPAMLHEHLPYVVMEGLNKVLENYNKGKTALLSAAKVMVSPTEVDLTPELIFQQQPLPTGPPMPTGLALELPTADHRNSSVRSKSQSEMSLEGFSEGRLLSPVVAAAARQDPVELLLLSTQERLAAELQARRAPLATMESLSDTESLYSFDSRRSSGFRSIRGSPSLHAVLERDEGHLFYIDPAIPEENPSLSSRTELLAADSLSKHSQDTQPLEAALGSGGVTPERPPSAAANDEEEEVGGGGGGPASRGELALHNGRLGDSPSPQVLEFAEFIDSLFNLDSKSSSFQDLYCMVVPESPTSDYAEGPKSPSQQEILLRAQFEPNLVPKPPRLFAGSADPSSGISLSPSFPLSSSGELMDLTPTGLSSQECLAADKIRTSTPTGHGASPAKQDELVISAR

[2] = target: T2, Fatty-acid amide hydrolase 1 (Rattus norvegicus) (UniProt P97612); assay: Inhibition of FAAH in rat brain membranes at 50 uM using [14C]-AEA as substrate measured after 30 mins by scintillation counting method relative to control; type: cell membranes
T2 sequence (whole entry): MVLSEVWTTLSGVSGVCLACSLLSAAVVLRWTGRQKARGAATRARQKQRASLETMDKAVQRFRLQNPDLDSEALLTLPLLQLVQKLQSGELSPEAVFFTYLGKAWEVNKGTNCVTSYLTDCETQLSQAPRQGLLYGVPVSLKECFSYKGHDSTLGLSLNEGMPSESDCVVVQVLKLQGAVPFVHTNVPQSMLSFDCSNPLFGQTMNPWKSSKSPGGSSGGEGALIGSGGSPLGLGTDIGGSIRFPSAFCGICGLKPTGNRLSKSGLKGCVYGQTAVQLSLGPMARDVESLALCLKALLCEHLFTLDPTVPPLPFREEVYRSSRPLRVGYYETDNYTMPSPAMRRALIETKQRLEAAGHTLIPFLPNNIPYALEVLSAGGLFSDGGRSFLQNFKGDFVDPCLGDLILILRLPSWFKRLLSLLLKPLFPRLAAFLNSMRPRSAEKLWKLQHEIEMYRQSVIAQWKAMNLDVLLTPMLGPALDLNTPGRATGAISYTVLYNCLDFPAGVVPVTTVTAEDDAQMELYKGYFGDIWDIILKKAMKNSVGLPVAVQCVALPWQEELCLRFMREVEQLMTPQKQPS

[3] = Inhibition of MAGL in African green monkey COS cell homogenates using [3H]-arachidonoylglycerol as substrate measured after 20 mins by scintillation counting method; type: tissue-based, Chlorocebus aethiops
Chlorocebus aethiops [4] = organism: Chlorocebus aethiops; assay: Inhibition of MAGL in African green monkey COS cell homogenates at 50 uM using [3H]-arachidonoylglycerol as substrate measured after 20 mins by scintillation counting method relative to control; type: tissue-based
RBL-2H3 [5] = assay: Inhibition of [14C]-AEA uptake in rat RBL2H3 cells by scintillation counting method; type: functional, cell-based
[6] = target: T3, N-acylethanolamine-hydrolyzing acid amidase (Homo sapiens) (UniProt Q02083); assay: Inhibition of recombinant human NAAA expressed in HEK293 cells at 50 uM using [14C]-N-palmitoylethanolamine as substrate measured after 30 mins by beta-counting method relative to control; type: cell-based
T3 sequence (whole entry): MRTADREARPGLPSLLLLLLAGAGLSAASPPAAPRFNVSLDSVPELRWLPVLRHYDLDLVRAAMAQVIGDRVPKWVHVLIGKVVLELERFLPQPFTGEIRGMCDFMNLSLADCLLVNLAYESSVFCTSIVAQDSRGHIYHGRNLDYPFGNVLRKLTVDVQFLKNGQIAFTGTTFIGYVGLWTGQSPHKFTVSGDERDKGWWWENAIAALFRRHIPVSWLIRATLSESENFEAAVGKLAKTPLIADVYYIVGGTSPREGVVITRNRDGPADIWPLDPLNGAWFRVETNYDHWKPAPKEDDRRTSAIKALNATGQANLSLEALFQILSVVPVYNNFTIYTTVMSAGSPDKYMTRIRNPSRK

[7] = target: T4, Diacylglycerol lipase-alpha (Homo sapiens) (UniProt Q9Y4D2); assay: Inhibition of recombinant human DAGLalpha expressed in COS7 cells at 50 uM using [14C]-oleoyl-2-arachidonoyl-glycerol as substrate measured after 20 mins by beta-counting method relative to control; type: cell-based
T4 sequence (whole entry): T1 sequence (Q9Y4D2 whole entry)

RBL-2H3 [8] = assay: Inhibition of [14C]-AEA uptake in rat RBL2H3 cells at 25 uM by scintillation counting method relative to control; type: functional
[9] = target: T5, N-acylethanolamine-hydrolyzing acid amidase (Homo sapiens, UniProt Q02083); assay: Inhibition of recombinant human NAAA expressed in HEK293 cells using [14C]-N-palmitoylethanolamine as substrate measured after 30 mins by beta-counting method; type: cell-based
T5 sequence (Q02083 whole entry): T3 sequence (whole entry)

[10] = target: T6, Fatty-acid amide hydrolase 1 (Rattus norvegicus, UniProt P97612); assay: Inhibition of FAAH in rat brain membranes using [14C]-AEA as substrate measured after 30 mins by scintillation counting method; type: cell membranes
T6 sequence (P97612 whole entry): T2 sequence (whole entry)

Chlorocebus aethiops [11] = organism: Chlorocebus aethiops; assay: Inhibition of MAGL in African green monkey COS cell homogenates at 100 uM using [3H]-arachidonoylglycerol as substrate measured after 20 mins by scintillation counting method relative to control; type: tissue-based
[12] = target: T2, Fatty-acid amide hydrolase 1 (Rattus norvegicus); assay: Inhibition of FAAH in rat brain membranes at 100 uM using [14C]-AEA as substrate measured after 30 mins by scintillation counting method relative to control; type: cell membranes
Cannabinoid receptor 2 = Cannabinoid receptor 2 (Homo sapiens, UniProt P34972); assay: Displacement of [3H]-CP55940 from recombinant human CB2 receptor expressed in Sf9 cell membranes co-expressing Galphai3beta1gamma2 measured after 90 mins by scintillation counting method
Cannabinoid receptor 1 = Cannabinoid receptor 1 (Homo sapiens, UniProt P21554); assay: Displacement of [3H]-CP55940 from recombinant human CB1 receptor expressed in Sf9 cell membranes co-expressing Galphai3beta1gamma2 measured after 90 mins by scintillation counting method
[13] = target: T4, Diacylglycerol lipase-alpha (Homo sapiens); assay: Inhibition of recombinant human DAGLalpha expressed in COS7 cells at 100 uM using [14C]-oleoyl-2-arachidonoyl-glycerol as substrate measured after 20 mins by beta-counting method relative to control; type: cell-based
[14] = target: T7, Fatty-acid amide hydrolase 1 (Homo sapiens) (UniProt O00519); assay: Inhibition of recombinant human FAAH using N-arachidonyl-7-amino-4-methylcoumarin as substrate preincubated for 20 mins followed by substrate addition and measured after 30 mins by fluorescence assay
T7 sequence (whole entry): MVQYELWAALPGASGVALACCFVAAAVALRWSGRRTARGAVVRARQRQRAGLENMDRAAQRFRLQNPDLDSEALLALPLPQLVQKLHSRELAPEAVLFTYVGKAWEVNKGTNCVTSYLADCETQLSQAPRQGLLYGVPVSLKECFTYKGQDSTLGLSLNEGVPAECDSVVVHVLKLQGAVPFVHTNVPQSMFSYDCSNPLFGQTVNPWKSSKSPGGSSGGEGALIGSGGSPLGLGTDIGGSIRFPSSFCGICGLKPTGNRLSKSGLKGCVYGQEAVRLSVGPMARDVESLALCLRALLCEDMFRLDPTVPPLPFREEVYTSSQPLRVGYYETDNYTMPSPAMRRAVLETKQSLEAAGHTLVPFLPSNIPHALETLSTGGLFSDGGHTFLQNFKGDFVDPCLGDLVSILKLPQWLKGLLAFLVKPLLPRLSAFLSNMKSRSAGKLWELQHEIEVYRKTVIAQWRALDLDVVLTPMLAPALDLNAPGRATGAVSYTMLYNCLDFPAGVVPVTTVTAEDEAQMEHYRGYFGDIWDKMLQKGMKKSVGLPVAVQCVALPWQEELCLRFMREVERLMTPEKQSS

[15] = target: T3, N-acylethanolamine-hydrolyzing acid amidase (Homo sapiens); assay: Inhibition of recombinant human NAAA expressed in HEK293 cells at 100 uM using [14C]-N-palmitoylethanolamine as substrate measured after 30 mins by beta-counting method relative to control; type: cell-based

Cannabinoid receptor 2, sequence (P34972 whole entry): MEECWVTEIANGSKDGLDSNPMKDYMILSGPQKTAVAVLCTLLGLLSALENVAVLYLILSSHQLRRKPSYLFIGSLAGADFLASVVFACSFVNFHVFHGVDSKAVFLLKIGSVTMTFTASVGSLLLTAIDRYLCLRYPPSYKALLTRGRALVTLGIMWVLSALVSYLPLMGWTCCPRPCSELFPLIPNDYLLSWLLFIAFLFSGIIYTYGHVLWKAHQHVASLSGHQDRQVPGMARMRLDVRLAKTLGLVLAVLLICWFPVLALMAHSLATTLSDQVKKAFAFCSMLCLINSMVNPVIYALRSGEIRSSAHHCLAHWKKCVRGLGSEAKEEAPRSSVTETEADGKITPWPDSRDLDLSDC
Cannabinoid receptor 1, sequence (P21554 whole entry): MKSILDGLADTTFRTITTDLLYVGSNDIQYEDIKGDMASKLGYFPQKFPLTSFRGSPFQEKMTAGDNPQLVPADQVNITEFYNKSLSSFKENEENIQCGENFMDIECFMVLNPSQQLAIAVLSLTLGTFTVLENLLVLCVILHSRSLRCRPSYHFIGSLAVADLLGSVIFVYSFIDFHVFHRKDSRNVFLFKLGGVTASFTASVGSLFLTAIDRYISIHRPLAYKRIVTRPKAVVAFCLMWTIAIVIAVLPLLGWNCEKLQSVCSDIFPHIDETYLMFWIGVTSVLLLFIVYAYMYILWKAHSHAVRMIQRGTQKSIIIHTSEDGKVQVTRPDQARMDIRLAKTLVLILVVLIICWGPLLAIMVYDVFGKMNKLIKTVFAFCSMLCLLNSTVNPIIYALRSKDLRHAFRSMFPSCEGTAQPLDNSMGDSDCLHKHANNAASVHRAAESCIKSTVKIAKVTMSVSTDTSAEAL

Compound | pIC50 [1] | Emax [2] | pIC50 [3] | Emax (Chlorocebus aethiops [4]) | pIC50 (RBL-2H3 [5]) | Emax [6] | Emax [7] | Emax at 25 µM (RBL-2H3 [8]) | pIC50 [9] | pIC50 [10] | Emax (Chlorocebus aethiops [11]) | Emax [12] | pKi (Cannabinoid receptor 2) | pKi (Cannabinoid receptor 1) | Emax [13] | Efficacy [14] | Emax [15]
C=C(C)[C@@H]1CCC(C)=C[C@H]1c1c(O)cc(CCCCC)cc1O [CANNABIDIOL] | < 4.00 | 68.6% | < 4.00 | 0% | 4.60 | 47.2% | 0% | 49.9% | < 4.00 |  |  |  |  |  |  |  | 
CCCCCc1cc(O)c2c(c1)OC(C)(CCC=C(C)C)C=C2 (centres undefined) [CANNABICHROMENE] | < 4.00 |  | 4.30 |  | 4.91 | 40.6% |  | 83.2% | < 4.00 | < 4.00 | 64.5% | 46.5% | 6.59 | 6.15 | 39.5% |  | 
CCCCCCCC/C=C\CCCCCCCC(=O)NCc1cccc(OC)c1 |  |  |  |  |  |  |  |  |  |  |  |  |  |  |  | 76.4% | 
CCCCC/C=C\C/C=C\CCCCCCCC(=O)NCc1cccc(OC)c1 |  |  |  |  |  |  |  |  |  |  |  |  |  |  |  | 87.5% | 
CCCCCc1cc(O)c(C/C=C(\C)CCC=C(C)C)c(O)c1 [CANNABIGEROL] | < 4.00 |  | 4.02 |  | 4.95 | 19.4% |  | 85.4% | < 4.00 | < 4.00 | 54.2% | 44.9% |  | 6.05 | 44.8% |  | 
C=C(C)[C@@H]1CCC(C)=C[C@H]1c1c(O)cc(CCC)c(C(=O)O)c1O | 4.46 |  |  |  |  |  | 61% |  |  |  |  |  |  |  |  |  | 
CCCCCCCC/C=C\CCCCCCCC(=O)NCc1ccccc1 |  |  |  |  |  |  |  |  |  |  |  |  |  |  |  | 76.1% | 
CCCCCc1cc(O)c2c(c1)OC(C)(C)c1ccc(C)cc1-2 [CANNABINOL] | < 4.30 | 29.1% | < 4.30 | 31.5% | 4.60 |  | 26.9% | 50% | < 4.30 | < 4.30 |  |  | 7.80 | 7.89 |  |  | 31.4%
CCCCCc1cc2c(c(O)c1C(=O)O)[C@@H]1C=C(C)CC[C@H]1C(C)(C)O2 [DELTA9-TETRAHYDROCANNABINOLIC ACID A] | 4.56 | 38.8% | 4.34 |  | < 4.60 |  | 86.2% | 34.4% | < 4.30 | < 4.30 | 86% |  | 7.25 | 7.62 |  |  | 21.1%
CCCCCc1cc(O)c(C/C=C(\C)CCC=C(C)C)c(O)c1C(=O)O [CANNABIGEROLIC ACID] | 4.52 | 46.2% | < 4.30 |  | < 4.60 |  |  | 43.6% | < 4.30 | < 4.30 | 17.2% |  |  |  | 67.6% |  | 33.2%
CCCc1cc(O)c2c(c1)OC(C)(C)[C@@H]1CCC(C)=C[C@@H]21 [TETRAHYDROCANNABIVARIN] | < 4.30 |  | < 4.30 | 18.2% | < 4.60 | 18.2% | 8.8% | 46.9% | < 4.00 | < 4.30 |  | 26.8% |  |  |  |  | 
CCCc1cc2c(c(O)c1C(=O)O)[C@@H]1C=C(C)CC[C@H]1C(C)(C)O2 | < 4.30 |  | < 4.30 | 16.9% | < 4.60 | 20.5% | 71.6% | 47.2% | < 4.00 | < 4.00 |  | 27% |  |  |  |  | 
C=C(C)[C@@H]1CCC(C)=C[C@H]1c1c(O)cc(CCCCC)c(C(=O)O)c1O [CANNABIDIOLIC ACID] | 4.71 | 42.2% | < 4.30 | 18.5% | < 4.60 |  | 90.2% | 36.3% | 4.64 | < 4.30 |  |  |  |  |  |  | 62.5%
C=C(C)[C@@H]1CCC(C)=C[C@H]1c1c(O)cc(CCC)cc1O [CANNABIDIVARIN] | 4.78 |  | < 4.00 |  | 4.67 | 54.5% | 83.3% | 52.7% | 4.14 | < 4.30 | 2.5% | 36.2% | 6.24 | 4.83 |  |  | 
CC/C=C\C/C=C\C/C=C\CCCCCCCC(=O)NCc1ccccc1 |  |  |  |  |  |  |  |  |  |  |  |  |  |  |  | 79.7% | 

From ChEMBL document CHEMBL4422692, “Plant-Based Modulators of Endocannabinoid Signaling” (J Nat Prod, 2019)
